{"source": "patent US20250332180A1", "about": "“CANNABINOIDS AND IL-15 ACTIVATE NK CELLS” (The Regents of the University of California, priority 2022, published 2025)", "key": {"[1]": {"tested_on": "anti-proliferative effects of radiation therapy", "conditions": "previously reported; cited from earlier work"}, "OSCCs [2]": {"tested_on": "OSCCs", "test": "Cell count of viable cells (Trypan Blue, light microscope)", "assay_type": "cell-based, human", "conditions": "CDDP 50 μg/mL, 24 hours", "excerpt": "The number of viable cells was counted under light microscope using Trypan Blue staining. Compiled data from three independent experiments performed as shown.\nThe number of viable cells was counted under light microscope using Trypan Blue staining (Sigma, MO, USA)."}, "OSCCs [3]": {"tested_on": "OSCCs", "test": "Cell death assay (PI staining, flow cytometry)", "assay_type": "cell-based, human", "conditions": "CDDP 50 μg/mL, 24 hours", "protocol": "No differences between untreated tumor cells and those treated with the DMSO vehicle alone in cell count or the amount of cell death in OSCCs and OSCSCs. […] Proportion of the live cells that had lost forward and side scatter were determined indicating decreased viability of the cells. In addition, the numbers of viable cells were determined after PI staining followed by flow cytometric analysis (FIG. 2A). OSCC tumor cells were treated as in FIG. 2A and the cells were analyzed by flow cytometry to determine the proportion of the live cells that had lost forward and side scatter indicating decreased viability of the cells (FIG. 2B) and the numbers of viable OSCC tumor cells were determined after PI staining followed by flow cytometric analysis (FIG. 2C). […] PI staining was used to determine the cell death by flow cytometry. One of four representative experiment is shown in (FIG. 2D). The compiled data of paired OSCCs and OSCSCs at the same concentration of WIN 55,212-2 treatment from four experiments is shown in (FIG. 2E). Four experiments were compiled and the % cell death of tumor cells by various WIN 55-212,2 concentrations (10, 25, 50 and 100 μM) were compared to the untreated control for both OSCC (FIG. 2F) and OSCSC (FIG. 2G). […] Non-linear regression was used to fit the curve of the % cell death induced by WIN 55-212,2 in various concentrations (10, 25, 50 and 100 μM) for both OSCC and OSCSC. […] The differences were clear within each independent experiment.\nPI staining was used to determine the cell death by flow cytometry. Compiled data from four independent experiments performed is shown."}, "PL-12 tumor cells [4]": {"tested_on": "PL-12 tumor cells", "test": "Cell death assay (PI staining, flow cytometry)", "assay_type": "cell-based, human", "conditions": "CDDP"}, "OSCCs [5]": {"tested_on": "OSCCs", "test": "Microscopy of morphology and viability", "assay_type": "cell-based, human", "conditions": "CDDP 50 μg/mL, 24 h", "protocol": "(§1) Chemical structure of WIN 55,212-2 (FIG. 7A). […] OSCCs and OSCSCs were treated with CDDP (50 μg/mL) and different concentrations of WIN 55,212-2 for 24 hours before the microscopic images were taken. Scale bar=50 μm (FIG. 7B)."}, "OSCSCs": {"tested_on": "OSCSCs", "test": "Microscopy of morphology and viability", "assay_type": "cell-based, human", "conditions": "CDDP 50 μg/mL, 24 h", "protocol": "as §1"}, "MP2 tumor cells": {"tested_on": "MP2 tumor cells", "test": "Microscopy of morphology and viability", "assay_type": "cell-based, human", "conditions": "CDDP 50 μg/mL, 24 hours", "protocol": "(§2) MP2 and PL-12 tumor cells were treated with CDDP (50 μg/mL) and different concentrations of WIN 55,212-2 for 24 hours before the microscopic images were taken. Scale bar=50 μm."}, "PL-12 tumor cells [6]": {"tested_on": "PL-12 tumor cells", "test": "Microscopy of morphology and viability", "assay_type": "cell-based, human", "conditions": "CDDP 50 μg/mL, 24 hours", "protocol": "as §2"}, "NK cells": {"tested_on": "NK cells", "test": "NK cell cytotoxicity in humanized BLT mice (4-hr Chromium release assay)", "assay_type": "in vivo", "conditions": "hu-BLT mice, every 2 days for 3 weeks; WIN 55,212-2 2 mg/kg IP; IL-15 5 μg/mice IP; preliminary experiments", "protocol": "Humanized BLT mice (hu-BLT; human-bone marrow/liver/thymus) were fed with, AJ2 (5×10^9 CFU/mice, every 2 days, Oral administration), WIN 55,212-2 (2 mg/kg, every 2 days, IP) and/or IL-15 (5 μg/mice, every 2 days, IP). After 3 weeks of treatment, immune cells were collected from peripheral blood, bone marrow and spleen, and CD3+ T cells were isolated from splenocytes with EasySep™ Human CD3 positive selection kit II (StemCell Tech.). PBMCs (0.5×10^6 cells) obtained from the peripheral blood were treated with IL-2 (1000 U/ml) and/or anti-CD16 antibody (BioLegend) (3 μg/ml) for 3 days, after which the cells were counted and different numbers of E:T ratios were used for the assessment of cytotoxicity using 4-hr Chromium release assay (FIG. 1A and FIG. 1B). The percentage specific cytotoxicity was calculated using the following formula (% cytotoxicity=(Experimental cpm/spontaneous cpm)/(total cpm−spontaneous cpm)) and the lytic unit 30 (Lu30/10^6) was calculated by using the inverse of the number of effector cells needed to lyse 30% of tumor target cells×100. Killing per % NK cells was determined by dividing the total Lytic unit 30 by the percentage of NK cells in each sample (FIG. 1A and FIG. 1B). […]"}, "IFN-γ secretion": {"tested_on": "IFN-γ secretion", "test": "IFN-γ secretion of immune cells in humanized BLT mice (ELISA, ELISpot)", "assay_type": "in vivo", "conditions": "hu-BLT mice, every 2 days for 3 weeks; WIN 55,212-2 2 mg/kg IP; IL-15 5 μg/mice IP", "protocol": "Humanized BLT mice (hu-BLT; human-bone marrow/liver/thymus) were fed with, AJ2 (5×10^9 CFU/mice, every 2 days, Oral administration), WIN 55,212-2 (2 mg/kg, every 2 days, IP) and/or IL-15 (5 μg/mice, every 2 days, IP). After 3 weeks of treatment, immune cells were collected from peripheral blood, bone marrow and spleen, and CD3+ T cells were isolated from splenocytes with EasySep™ Human CD3 positive selection kit II (StemCell Tech.). PBMCs (0.5×10^6 cells) obtained from the peripheral blood were treated with IL-2 (1000 U/ml) and/or anti-CD16 antibody (BioLegend) (3 μg/ml) for 3 days, after which the cells were counted and different numbers of E:T ratios were used for the assessment of cytotoxicity using 4-hr Chromium release assay (FIG. 1A and FIG. 1B). The percentage specific cytotoxicity was calculated using the following formula (% cytotoxicity=(Experimental cpm/spontaneous cpm)/(total cpm−spontaneous cpm)) and the lytic unit 30 (Lu30/10^6) was calculated by using the inverse of the number of effector cells needed to lyse 30% of tumor target cells×100. Killing per % NK cells was determined by dividing the total Lytic unit 30 by the percentage of NK cells in each sample (FIG. 1A and FIG. 1B). PBMCs (0.5×10^6 cells) obtained from the blood were treated with IL-2 (1000 U/ml) and/or anti-CD16 antibody (BioLegend) (3 μg/ml) for 24 hours, after which the supernatants were collected to measure IFN-g secretion using ELISA (BioLegend, San Diego) (FIG. 1C). ELISpot was used to determine the IFN-γ spots in PBMC (FIG. 1D), bone marrow (FIG. 1E), spleen (FIG. 1F) and CD3+ T cells (FIG. 1G).\nHumanized BLT mice (hu-BLT; human-bone marrow/liver/thymus) were fed with, AJ2 (5×10^9 CFU/mice, every 2 days, Oral administration), WIN 55,212-2 (2 mg/kg, every 2 days, IP) and/or IL-15 (5 μg/mice, every 2 days, IP). After 3 weeks of treatment, immune cells were collected from peripheral blood, bone marrow and spleen, and CD3+ T cells were isolated from splenocytes with EasySep™ Human CD3 positive selection kit II (StemCell Tech.). PBMCs (0.5×10^6 cells) obtained from the peripheral blood were treated with IL-2 (1000 U/ml) and/or anti-CD16 antibody (BioLegend) (3 μg/ml) for 3 days, after which the cells were counted and different numbers of E:T ratios were used for the assessment of cytotoxicity using 4-hr Chromium release assay (FIG. 6A and FIG. 6B). The percentage specific cytotoxicity was calculated using the following formula (% cytotoxicity=(Experimental cpm/spontaneous cpm)/(total cpm−spontaneous cpm)) and the lytic unit 30 (Lu30/10^6) was calculated by using the inverse of the number of effector cells needed to lyse 30% of tumor target cells×100. Killing per % NK cells was determined by dividing the total Lytic unit 30 by the percentage of NK cells in each sample (FIG. 6A and FIG. 6B). PBMCs (0.5×10^6 cells) obtained from the blood were treated with IL-2 (1000 U/ml) and/or anti-CD16 antibody (BioLegend) (3 μg/ml) for 24 hours, after which the supernatants were collected to measure IFN-g secretion using ELISA (BioLegend, San Diego) (FIG. 6C). ELISpot was used to determine the IFN-γ spots in PBMC (FIG. 6D), bone marrow (FIG. 6E), spleen (FIG. 6F) and CD3+ T cells (FIG. 6G)."}}, "data": [{"compound": "C=C(C)[C@@H]1CCC(C)=C[C@H]1c1c(O)cc(CCCCC)cc1O", "note": "[CBD]", "values": [{"measurement": "enhancement of anti-proliferative effects of radiation therapy", "setting": "[1]", "result": "failed to enhance"}]}, {"compound": "N.N.[Cl][Pt][Cl]", "note": "[CDDP, cis-diamminedichloridoplatinum(II)]", "values": [{"measurement": "inhibition of cell growth, OSCCs compared with OSCSCs", "setting": "OSCCs [2]", "result": "inhibit cell growth of OSCCs more than those seen with OSCSCs"}, {"measurement": "cell death, OSCCs compared with OSCSCs", "setting": "OSCCs [3]", "result": "triggered more cell death in OSCCs when compared to OSCSCs"}, {"measurement": "cell death, PL-12 compared with MP2", "setting": "PL-12 tumor cells [4]; compiled data", "result": "similar"}, {"measurement": "cell death, PL-12 compared with MP2", "setting": "PL-12 tumor cells [4]; representative experiment", "result": "higher in PL-12"}, {"measurement": "morphology and attachment", "setting": "OSCCs [5]", "result": "loss of morphology, and the majority were detached from the plates"}, {"measurement": "morphology and attachment", "setting": "OSCSCs", "result": "the majority of these cells were still attached to the cell culture plate"}, {"measurement": "morphology", "setting": "MP2 tumor cells", "result": "affected both PL-12 and MP2 tumors morphologically"}, {"measurement": "morphology", "setting": "PL-12 tumor cells [6]", "result": "affected both PL-12 and MP2 tumors morphologically"}]}, {"compound": "CCCCCc1cc(O)c2c(c1)OC(C)(C)[C@@H]1CCC(C)=C[C@@H]21", "note": "[THC, tetrahydrocannabinol]", "values": [{"measurement": "enhancement of anti-proliferative effects of radiation therapy", "setting": "[1]", "result": "failed to enhance"}]}, {"compound": "CCCCCCC(C)(C)c1cc(O)c2c(c1)OC(C)(C)C1CCC(=O)CC21", "note": "(stereo not shown) [nabilone]", "values": [{"measurement": "enhancement of anti-proliferative effects of radiation therapy", "setting": "[1]", "result": "failed to enhance"}]}, {"compound": "IL-15: IL-15, given by intraperitoneal injection 5 μg/mice", "values": [{"measurement": "cytotoxic function of NK cells in PBMC", "setting": "NK cells", "result": "increased the NK cytotoxicity"}, {"measurement": "IFN-γ secretion (ELISA, PBMCs)", "setting": "IFN-γ secretion", "result": "increased"}]}]}
